Here are results for 26 compounds from patent US20110166135A1, “AROMATIC NITROGEN-CONTAINING 6-MEMBERED RING COMPOUNDS AND THEIR USE” (priority 2008, published 2011).

Usually melting point stands for the temperature of the solid-liquid transition. For orientation: IC50 means the concentration that gives 50% inhibition. High values mean a need for much substance, low ones inhibition by little substance.

The structures appear in SMILES notation.

Tested on in one data set: not given
Test: not given
Settings: not given
For the compound `COc1ccc(-c2cc(N3CCC(O)C3)nc(/C=C/c3nc(N(C)C)c4ccccc4n3)n2)cc1OC` (stereo not shown) [Example 1.007, 1-(6-(3,4-dimethoxyphenyl)-2-{(E)-2-[4-(dimethylamino)quinazolin-2-yl]vinyl}pyrimidin-4-yl)pyrrolidin-3-ol], the melting point was in the range of 199 to 201 °C.
As to `COc1ccc(-c2cc(N3CCn4ccnc4C3)nc(/C=C/c3nc(N(C)C)c4ccccc4n3)n2)cc1OC` [Example 1.008], the melting point is 103 to 108 °C.
Turning to `COc1ccc(-c2cc(N3CCN(C)CC3)nc(/C=C/c3nc(-n4ccnc4)c4ccccc4n3)n2)cc1OC` [Example 1.010], the melting point lay within 177 to 180 °C.
The same measure, in the same setting: for `COc1ccc(-c2cc(N3CCC(NC(=O)CN(C)C)C3)nc(/C=C/c3nc(N(C)C)c4ccccc4n3)n2)cc1OC` (stereo not shown) [Example 1.104, N^1-[1-(6-(3,4-dimethoxyphenyl)-2-{(E)-2-[4-(dimethylamino)quinazolin-2-yl]vinyl}pyrimidin-4-yl)pyrrolidin-3-yl]-N^2,N^2-dimethylglycine amide] the value was 126 to 131 °C.

In a further data set the target is T1, PDE10 (PDE10A) (Bos taurus, UniProt A0A3Q1MHJ4).
T1 construct: isolated and prepared from bovine corpus striatum; from tissue; host or cells: bovine corpus striatum
T1 sequence (A0A3Q1MHJ4 1-1068): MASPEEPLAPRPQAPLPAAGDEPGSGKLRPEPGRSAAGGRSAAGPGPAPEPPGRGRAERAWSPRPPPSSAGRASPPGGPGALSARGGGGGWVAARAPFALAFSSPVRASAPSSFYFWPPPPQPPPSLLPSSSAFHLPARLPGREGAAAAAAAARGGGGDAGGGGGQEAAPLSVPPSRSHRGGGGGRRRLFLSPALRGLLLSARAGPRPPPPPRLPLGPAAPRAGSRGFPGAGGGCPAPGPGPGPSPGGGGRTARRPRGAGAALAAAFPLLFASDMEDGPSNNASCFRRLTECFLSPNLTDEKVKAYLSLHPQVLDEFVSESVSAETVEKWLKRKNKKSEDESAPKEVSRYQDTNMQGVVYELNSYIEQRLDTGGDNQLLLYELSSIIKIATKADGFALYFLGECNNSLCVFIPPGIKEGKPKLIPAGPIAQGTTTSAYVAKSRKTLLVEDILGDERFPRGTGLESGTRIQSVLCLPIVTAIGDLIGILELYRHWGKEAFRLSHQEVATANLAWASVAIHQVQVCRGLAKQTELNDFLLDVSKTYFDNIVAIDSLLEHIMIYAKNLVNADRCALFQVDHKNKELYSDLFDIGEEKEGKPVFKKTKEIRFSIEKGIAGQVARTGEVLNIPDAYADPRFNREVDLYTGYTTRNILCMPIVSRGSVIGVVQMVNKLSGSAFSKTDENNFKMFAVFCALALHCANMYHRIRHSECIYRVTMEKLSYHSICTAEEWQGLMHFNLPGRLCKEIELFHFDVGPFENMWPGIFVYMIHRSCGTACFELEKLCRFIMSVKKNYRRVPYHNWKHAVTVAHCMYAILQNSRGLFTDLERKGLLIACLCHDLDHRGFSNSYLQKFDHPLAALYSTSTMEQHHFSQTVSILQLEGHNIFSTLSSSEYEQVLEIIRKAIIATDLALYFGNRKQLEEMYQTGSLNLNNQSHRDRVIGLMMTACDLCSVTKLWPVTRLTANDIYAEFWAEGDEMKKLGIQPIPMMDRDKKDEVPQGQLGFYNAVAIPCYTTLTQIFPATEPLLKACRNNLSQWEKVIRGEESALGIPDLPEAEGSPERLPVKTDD
Nature of the data set: Measurement of PDE10 inhibitory activity (radiolabeled nucleotide PDE assay, Method-A or Method-B). It is filed as biochemical. Particulars: Method-A: [3H]-cAMP substrate, 37° C., 30 minutes, enzyme from bovine corpus striatum. The procedure: (1) The enzyme PDE10 (PDE10A) was isolated and prepared from bovine corpus striatum, according to the methods described in references Fujishige et al., Eur. J. Biochem., vol. 266, pp. 1118-1127, 1999. The enzyme solution obtained was used for a PDE assay.
The PDE assay was performed according to the method described in Kotera et al. (Kotera et al., Biochem. Pharmacol., vol. 60, pp. 1333-1341, 2000), by the radiolabeled nucleotide method.
Specifically, the measurements of the inhibitory activities were carried out in one of the following methods.
(Method-A) The enzymatic reaction was carried out in 500 μl of assay buffer [50 mM Tris-HCl, pH8.0, 5 mM MgCl2, 4 mM 2-mercaptoethanol, 0.33 mg/ml bovine serum albumin] containing as a substrate about 4.8 nM [^3H]-cAMP+0.25 μM unlabeled cAMP (available from Amersham Biosciences) or about 9.6 nM [^3H]-cAMP.
The reaction was carried out for 30 minutes while keeping the temperature at 37° C. It was stopped by boiling the reaction mixture for 1.5 minutes, and further added thereto was 100 μl of snake venom (Crotalus atrox snake venom 1 mg/ml) and the temperature was kept at 37° C. for 30 minutes. Then 500 μl of methanol was added, and the reaction mixture was applied to a Dowex column (1×8 200-400). Subsequently, scintillation cocktail was added to each aliquot of the eluant, and the radioactivity was measured in a scintillation counter. Thus, PDE activity taking cAMP as a substrate (an activity to hydrolyze cAMP) was measured.
In the measurements of the inhibitory activities of compounds, a test compound was added to the above-mentioned reaction mixture, in various concentrations, and PDE activity was measured in the presence or absence of the test compound. From the measurements, its PDE10 (PDE10A) inhibitory activity was determined.
(Method-B) The test compounds were dissolved in dimethyl sulfoxide (DMSO). 2 μL of the compound solution was added to 96 well plate, and the reaction mixture (20 μL of PDE enzyme solution in 50 mM Tris-HCl, pH 8.0, 40 μL of the assay buffer (50 mM Tris-HCl, pH 8.0, 2 mM MgCl2, 0.07% 2-mercaptoethanol, and 0.825 mg/mL bovine serum albumin), and 20 μL of 1 mg/mL snake venom) was added to the 96 well plate. The enzyme reaction was started by adding and mixing with substrate solution of 20 μL containing approximate 35 nM [5′,8-3H]cAMP in 50 mM Tris-HCl, pH 8.0. The final concentration of cAMP in the reaction mixtures was 7 nM. The reaction mixtures were incubated at room temperature for 90 min under dark conditions. After incubation, the reaction was stopped by adding 100 μL of methanol and resultant solutions were applied to filter plate containing Dowex (1×8 200-400) and centrifuged. 50 μL of the eluate together with wash eluate with additional 100 μL methanol was collected in another plate and the radioactivity was measured with 250 μL of scintillant.
(2) The compounds in the Examples below were tested for PDE inhibition using (Method-A) or (Method-B) described above.
`COc1ccc(-c2cc(N3CCn4ccnc4C3)nc(/C=C/c3nc(N(C)C)c4ccccc4n3)n2)cc1OC` [Example 1.008] came in with an IC50 of 0.44 nM. This counts as sub-nanomolar.
Compound `COc1ccc(-c2cc(N3CCN(C)CC3)nc(/C=C/c3nc(-n4ccnc4)c4ccccc4n3)n2)cc1OC` [Example 1.010] gave a 50% inhibitory concentration (IC50) of 46 nM.
The same measure, in the same setting: for `COc1ccc(-c2cc(N3CCN(C)C3=O)nc(/C=C/c3nc(N4CCCC4)c4ccccc4n3)n2)cc1OC` [Example 1.013] the value was 4.2 nM; for `COc1ccc(-c2cc(N3CCCC3)nc(/C=C/c3nc(C)nc4c3CCN4C)n2)cc1OC` [Example 1.055], 9.7 nM.
The same measure, in the same setting: for `COc1ccc(-c2cc(N3CCCC3)nc(/C=C/c3nc(C)cnc3C)n2)cc1OC` [Example 1.057] the value was 29 nM.
Same read-out and setting: for `Cc1cnc(/C=C/c2nc(-c3ccccn3)cc(N3CCCC3)n2)nc1N(C)C` [Example 1.071] the value was 31 nM.
On to `Cc1nc(OCc2cc(-c3ccco3)nc(N3CCCC3)n2)nc(N(C)C)c1C` [Example 3.017], for which the half-inhibitory concentration (IC50) turned out to be 35 nM.
Same read-out and setting: the value for `COc1cc(OC)nc(OCc2cc(-c3ccc(OC)c(OC)c3)nc(N3CCCC3)n2)n1` [Example 3.029] was 38 nM; that for `CN(C)c1nc(OCc2cc(N3CCCC3)nc(-c3cccnc3)n2)nc2ccccc12` [Example 3.034] was 24 nM.

The same data set, now with this note: Method-B: 96 well plate, 7 nM cAMP, room temperature, 90 min, enzyme from bovine corpus striatum.
For `CN(C)c1nc(/C=C/c2nc(C(=O)NN3CCCCC3)cc(N3CCCC3)n2)nc2ccccc12` [Example 1.159], half-maximal inhibition (IC50) was put at 0.6 nM.
`Cc1nc2ccccc2nc1/C=C/c1nc(C(=O)NC2CCOCC2)cc(N2CCCC2)n1` [Example 1.208] had an IC50 of 0.62 nM.
Compound `Cc1nc2ccccc2nc1/C=C/c1nc(C(=O)N(C2CCOCC2)C2CC2)cc(N2CCCC2)n1` [Example 1.211] showed an IC50 of 0.76 nM.
The same measure, in the same setting: for `Cc1nc2ccccc2nc1/C=C/c1nc(C(=O)NN2CCCCC2)cc(N2CCCC2)n1` [Example 1.220] the value was 0.49 nM; for `Cc1nc2ccccc2nc1/C=C/c1nc(C(=O)N(C)C2CCOCC2)cc(N2CCC(O)C2)n1` (stereo not shown) [Example 1.226], 20 nM; for `CN(C(=O)c1cc(N2CCCC2)nc(/C=C/c2nc3ccccc3nc2C2CC2)n1)C1CCOCC1` [Example 1.253], 1.4 nM.
On the same count and under the same terms, for `Cc1cc2ccccc2nc1/C=C/c1nc(C(=O)NC2CCOCC2)cc(N2CCCC2)n1` [Example 1.260] the value was 2.5 nM; for `Cc1nc2ccccc2nc1/C=C/c1nc(CNC2CCOCC2)cc(N2CCCC2)n1` [Example 1.268], 0.7 nM.
The same measure, in the same setting: the value for `CN(C)c1nc(/C=C/c2nc(OC3CCCCC3)cc(N3CCCC3)n2)nc2ccccc12` [Example 2.035] was 0.89 nM; that for `CC(C)=NOc1cc(N2CCCC2)nc(/C=C/c2nc(N(C)C)c3ccccc3n2)n1` [Example 2.039] was 0.84 nM.
As for `CN(C)c1nc(/C=C/c2nc(OC[C@@H]3CCC(=O)N3)cc(N3CCCC3)n2)nc2ccccc12` [Example 2.048], half-maximal inhibition (IC50) was put at 0.21 nM. Compared with the last compound, the IC50 is about 4-fold lower.
On to `Cc1nc(/C=C/c2nc(OC3CCOCC3)cc(N3CCCC3)n2)nc(N(C)C)c1C` [Example 2.053], for which the IC50 came out at 0.64 nM.
`Cc1nc2ccccc2nc1/C=C/c1cc(C(=O)NC2CCOCC2)nc(N2CCCC2)n1` [Example 4.001] had an IC50 of 0.86 nM.
The compound `Cc1nc2ccccc2nc1CCc1nc(C(=O)NC[C@@H]2CCCO2)cc(N2CCCC2)n1` [Example 5.006] returned a 50% inhibitory concentration (IC50) of 3.3 nM.
For `CCOc1nc2ccccc2nc1CCc1nc(C(=O)NC2CCOCC2)cc(N2CCCC2)n1` [Example 5.012], half-maximal inhibition (IC50) was put at 2.3 nM.
